How the values were obtained:
[1] = Body weight change, bleomycin-induced IPF mice; assay type: in vivo
Procedure: The six-week old mice are used in this experiment and divided into ten groups as follows. […] The six-week old male C57B1/6 mice are purchased from the National Laboratory Animal Center. […] After being […] pentobarbital in the dose of 0.52 mg/10 g, the mice is kept upright and positioned an otoscope into the larynx for looking into the trachea clearly. The bleomycin is loaded by a loading tip for intratracheal administration.

[2] = test system: total cells, lymphocytes and eosinophils in BALF; assay: Cellular components in BALF, OVA-challenged mice; assay type: in vivo; conditions: 24 hrs after last OVA challenge; nebulization
From the text: Inflammation and remodeling of the bronchioles is associated with infiltration of blood-born lymphocytes, eosinophils and neutrophils, migrating into bronchial lumen. During the course of allergic disease, structural changes occur in the airways, referred to as remodeling. However, treatment with KMUP-1 prevents the migration of blood born cells into bronchiole.

MMP-9 [3] = assay: Short-term nebulization without OVA sensitization, lung tissue; assay type: in vivo, mice; conditions: 1.0~2.5 mM, 30 mins nebulization, no OVA
Procedure: (§1) Short-term KMUP-1 (5 mM, 30 min) nebulization and pretreatment with L-NAME (12 mM, […]) are accomplished using a previously described method. Aerosols were generated by ultrasonic nebulizer from day 21 to 27. Mice were sacrificed on day 28. Three different experiments were performed on cohorts of 7-14 mice per experimental condition.
(§2) Please refer to FIGS. 22(B) and 23(B), the changes of eNOS and MMP-9 expression by KMUP-1 (2.5 mM, 30 mins) are reversed by L-NAME-pretreatment (12 mM, 30 mins).

eNOS = assay: as above; assay type: in vivo, mice; conditions: 1.0~2.5 mM, 30 mins nebulization, no OVA
Procedure: as §1, §2

iNOS = assay: Western blotting of lung tissue, OVA-sensitized and -challenged mice; assay type: in vivo; conditions: nebulization, 28-day experiment
MMP-9 [4] = assay: OVA-induced MMP-9 expression in lung tissue, asthma mice; assay type: in vivo, BALB/c mice; conditions: nebulization, 28-day experiment; western blotting and zymography
Procedure: The male BALB/c mice (20-23 g) are injected (i.p.) with OVA (5 mM, 30 mins), sensitized with OVA on day 1 and day 8 via i.p injection and activated by 2 mg aluminum hydroxide to which 2 μg OVA is absorbed. […] The asthmatic animals are divided into 5 groups, wherein the control group is only administered with saline spray and the remaining experimental groups are firstly administered with 1% OVA spray and then administered with the sprays of the related complex salts respectively as shown in Table 4. The inhibition of the expression of OVA-induced MMP-9 in lung tissue of BALB/c mice is measured.

[5] = test system: inflammatory cells, vascular and bronchial wall; assay: Histological analyses of lung, OVA-exposed mice; assay type: in vivo
From the text: Histological analyses show the typical pathologic features of asthma in the OVA-exposed mice. Numerous inflammatory cells including eosinophils are infiltrated around the peri-vascular and peri-bronchial region, compared to control mice. […] After OVA challenge, marked increases in PA wall thickness % are found, compared to controls P<0.01).
OVA-sensitization increases the vascular and bronchial wall thickness, however, treatment with long-term KMUP-1 nebulization prevents these changes. […] MMP-9-immunostaining in peri-bronchial region and the reduced MMP-9-positive cells in bronchiole co-indicate the reduction of migration of infiltrated inflammatory cells.

NOx = NOx levels in BALF of OVA-sensitized and -challenged mice (Griess reagent); assay type: in vivo; conditions: 24 hrs after last OVA challenge; basal 65.4, OVA 162.8 μM
[6] = test system: inflammatory cells in the lung lavage; assay: Inflammatory cells in lung lavage, bleomycin-induced IPF mice; assay type: in vivo; parameters: WBC total (white blood cell total count) / NE (neutrophil) / LY (lymphocyte) / MO (monocyte) / EO (eosinophil) / BA (basophil): unit not given here; conditions: for Amount of WBC in lung lavage: lung inflammatory stage; for BA (basophil) / EO (eosinophil) / LY (lymphocyte) / MO (monocyte) / NE (neutrophil) / WBC total (white blood cell total count): lung lavage
Procedure: The amounts of the total cell, the neutrophill, the lymphocyte, the monocyte, the eosinophill and the basophill are analyzed by an automatic animal blood cell analyzer for evaluating the extent of the inflammation. […] The mice are euthanatized by administering the Urathane in a dose of 37.5 mg/10 g. The larynx is opened, the trachea is picked out, cut and held by a forcepts and a 0.58 mm PE tube is slowly inserted the trachea for infusing 0.5 ml PBS. The PBS is incubated for 15 seconds and then collected after gently massaging the lung tissue. 1 c.c. lung lavage is obtained after the above steps are repeated twice. The lung lavage is collected and transferred into a centrifuged tube for centrifuging at 1,200 rpm at 4° C. for 6 mins. The supernatant is collected and stored at −80° C. for zymography, and the pellet is suspended in PBS for calculating the WBC count. The pellet of the alveolar lavage is suspended in PBS and transferred into an eppendorff. The amount and kind of the inflammatory cell such as WBC total, the lymphocyte, the monocyte, the neutrophil, the eosinophil and the basophil are analyzed by an automatic animal blood cell analyzer.

[7] = Monocrotaline (MCT)-induced pulmonary arterial hypertension, PABP; assay type: in vivo, male Wistar rats; conditions: MCT-treated rats
Procedure: The rats administered MCT (60 mg/kg) are caused pulmonary artery hypertension on day 21 after the intraperitoneal injection. The KMUP-1HCl salt (2.5 mg/kg), Simvastatin (2.5 mg/kg), KMUP-1-nicotinic acid complex (2.5 mg/kg), KMUP-1-citric acid complex (2.5 mg/kg), KMUP-1-Simvastatinic Acid complex (2.5 mg/kg) and KMUP-1-γ-polyglutamic acid complex (2.5 mg/kg) orally administered, or the KMUP-1-PGI2 complex (0.1 mM) inhaled every day may inhibit the pulmonary arterial blood pressure (PABP) in MCT-treated male Wistar rats.

[8] = Day 7, dose 2.5 mg/kg (Combination: 2.5 mg/kg each drug)
[9] = Day 14, dose 2.5 mg/kg (Combination: 2.5 mg/kg each drug)
[10] = Day 28, dose 2.5 mg/kg (Combination: 2.5 mg/kg each drug)
[11] = Day −3, dose 2.5 mg/kg (Combination: 2.5 mg/kg each drug)
[12] = day 7, dose 2.5 mg/kg (Combination: 2.5 mg/kg each drug)
[13] = day 28, dose 2.5 mg/kg (Combination: 2.5 mg/kg each drug)

SMILES: Cn1c(=O)c2c(ncn2CCN2CCN(c3ccccc3Cl)CC2)n(C)c1=O [KMUP-1, 7-[2-[4-(2-chlorobenzene)piperazinyl]ethyl]-1,3-dimethylxanthine]
- Body weight ([1]; Day 7, dose 1 mg/kg): 19.80 ± 3.13 g
- Body weight [1, 8]: 17.84 ± 1.72 g
- Body weight ([1]; Day 7, dose 5 mg/kg): 18.33 ± 1.3 g
- Body weight ([1]; Day 14, dose 1 mg/kg): 20.48 ± 5.68 g
- Body weight [1, 9]: 19.11 ± 3.4 g
- Body weight ([1]; Day 14, dose 5 mg/kg): 19.83 ± 2.3 g
- Body weight ([1]; Day 28, dose 1 mg/kg): 21.90 ± 5.27 g
- Body weight [1, 10]: 20.43 ± 2.8 g
- Body weight ([1]; Day 28, dose 5 mg/kg): 21.13 ± 2.5 g
- Body weight ([1]; Day −3, dose 1 mg/kg): 24.12 ± 1.96 g
- Body weight [1, 11]: 23.06 ± 1.36 g
- Body weight ([1]; Day −3, dose 5 mg/kg): 23.13 ± 1.42 g
- Increase in eosinophils in BALF [2]: significantly reduces
- Increase in lymphocytes in BALF [2]: significantly reduces
- Increase in total cells in BALF [2]: significantly reduces
- MMP-9 expression in lung tissues (MMP-9 [3]): decreased
- eNOS expression in lung tissues (eNOS): dose-dependently increased
- iNOS expression increased by OVA sensitization (iNOS): significantly reduced
- MMP-9 expression increased by OVA sensitization (MMP-9 [4]): significantly reduced
- Inflammatory cells in the peri-vascular and peri-bronchiolar regions ([5]; OVA-exposed mice): marked reductions
- Vascular and bronchial wall thickness increased by OVA-sensitization ([5]; long-term nebulization): prevents
- Levels of NOx (nitrate+nitrite) in BALF (NOx): 86.3 ± 17.3 µM
- Amount of WBC in lung lavage [6]: efficiently decrease
- BA (basophil) ([6]; day 7, dose 1 mg/kg): 0.2 ± 0.01
- EO (eosinophil) ([6]; day 7, dose 1 mg/kg): 0.44 ± 0.02
- LY (lymphocyte) ([6]; day 7, dose 1 mg/kg): 1.83 ± 0.11
- MO (monocyte) ([6]; day 7, dose 1 mg/kg): 0.12 ± 0.02
- NE (neutrophil) ([6]; day 7, dose 1 mg/kg): 0.92 ± 0.13
- WBC total (white blood cell total count) ([6]; day 7, dose 1 mg/kg): 3.51 ± 0.01
- BA (basophil) [6, 12]: 0.11 ± 0.02
- EO (eosinophil) [6, 12]: 0.17 ± 0.11
- LY (lymphocyte) [6, 12]: 1.81 ± 0.09
- MO (monocyte) [6, 12]: 0.07 ± 0.01
- NE (neutrophil) [6, 12]: 0.91 ± 0.36
- WBC total (white blood cell total count) [6, 12]: 3.2 ± 0.49
- BA (basophil) ([6]; day 7, dose 5 mg/kg): 0.1 ± 0.02
- EO (eosinophil) ([6]; day 7, dose 5 mg/kg): 0.16 ± 0.01
- LY (lymphocyte) ([6]; day 7, dose 5 mg/kg): 1.76 ± 0.01
- MO (monocyte) ([6]; day 7, dose 5 mg/kg): 0.07 ± 0.01
- NE (neutrophil) ([6]; day 7, dose 5 mg/kg): 0.33 ± 0.14
- WBC total (white blood cell total count) ([6]; day 7, dose 5 mg/kg): 2.43 ± 0.01
- BA (basophil) ([6]; day 28, dose 1 mg/kg): 0.21 ± 0.06
- EO (eosinophil) ([6]; day 28, dose 1 mg/kg): 0.42 ± 0.17
- LY (lymphocyte) ([6]; day 28, dose 1 mg/kg): 1.89 ± 0.76
- MO (monocyte) ([6]; day 28, dose 1 mg/kg): 0.2 ± 0.25
- NE (neutrophil) ([6]; day 28, dose 1 mg/kg): 0.61 ± 0.11
- WBC total (white blood cell total count) ([6]; day 28, dose 1 mg/kg): 3.41 ± 0.54
- BA (basophil) [6, 13]: 0.11 ± 0.7
- EO (eosinophil) [6, 13]: 0.17 ± 0.12
- LY (lymphocyte) [6, 13]: 1.24 ± 0.43
- MO (monocyte) [6, 13]: 0.07 ± 0.02
- NE (neutrophil) [6, 13]: 0.36 ± 0.16
- WBC total (white blood cell total count) [6, 13]: 1.95 ± 0.92
- BA (basophil) ([6]; day 28, dose 5 mg/kg): 0.1 ± 0.02
- EO (eosinophil) ([6]; day 28, dose 5 mg/kg): 0.16 ± 0.01
- LY (lymphocyte) ([6]; day 28, dose 5 mg/kg): 1.1 ± 0.01
- MO (monocyte) ([6]; day 28, dose 5 mg/kg): 0.07 ± 0.01
- NE (neutrophil) ([6]; day 28, dose 5 mg/kg): 0.33 ± 0.14
- WBC total (white blood cell total count) ([6]; day 28, dose 5 mg/kg): 1.8 ± 0.01

SMILES: CCC(C)(C)C(=O)O[C@H]1C[C@@H](C)C=C2C=C[C@H](C)[C@H](CC[C@@H](O)C[C@@H](O)CC(=O)O)[C@H]21.Cn1c(=O)c2c(ncn2CCN2CCN(c3ccccc3Cl)CC2)n(C)c1=O [KMUP-5]
- Body weight [1, 8]: 22.25 ± 2.36 g
- Body weight [1, 9]: 23.15 ± 2.51 g
- Body weight [1, 10]: 23.03 ± 2.74 g
- Body weight [1, 11]: 23.87 ± 2.04 g
- Marasmus (body weight loss) ([1]; bleomycin mice): less significant
- Pulmonary arterial blood pressure (PABP), in words ([7]; 2.5 mg/kg orally every day): inhibit
- PABP ([7]; 2.5 mg/kg/day p.o.): 12 ± 1.3 mmHg
- Amount of WBC in lung lavage [6]: efficiently decrease
- BA (basophil) [6, 12]: 0.02 ± 0.01
- EO (eosinophil) [6, 12]: 0.06 ± 0.04
- LY (lymphocyte) [6, 12]: 0.45 ± 0.17
- MO (monocyte) [6, 12]: 0.03 ± 0.02
- NE (neutrophil) [6, 12]: 0.18 ± 0.08
- WBC total (white blood cell total count) [6, 12]: 0.74 ± 0.21
- BA (basophil) [6, 13]: 0.01 ± 0.16
- EO (eosinophil) [6, 13]: 0.05 ± 0.3
- LY (lymphocyte) [6, 13]: 1.32 ± 1.59
- MO (monocyte) [6, 13]: 0.06 ± 0.11
- NE (neutrophil) [6, 13]: 0.14 ± 0.39
- WBC total (white blood cell total count) [6, 13]: 1.58 ± 2.24
